Results taken from US7351688B2, “Compositions and methods for less immunogenic protein formulations” (The Research Foundation of State University of New York, priority 2003, dated 2008).

Tested on: Hemophilia A mice
Assay: Immunogenicity of simple complexes, subcutaneous: total antibody titers (ELISA) and inhibitory titers (Bethesda Units)
Details: mouse, in vivo, sc
Method: To illustrate this example, simple complexes were prepared with phosphoserine, phosphocholine or phaphatidic acid. Immunogenicity was tested by subcutaneous administration of the complexes in Hemophilia A mice.

effect on immunogenicity (total antibody titers and inhibitory titers) versus rFVIII: not
Substance: phosphatidic acid
